± gives the expanded uncertainty stated by the source.
How the values were obtained:
[1] = xn = mol fraction of the nth substance listed; conditions: 101 kPa, Liquid; for speed of sound: Pulse-echo method; for mass density: Vibrating tube method
[2] = excess molar enthalpy (molar enthalpy of mixing); xn = mol fraction of the nth substance listed; conditions: 308.15 K, 101 kPa, Liquid, Power-compensation calorimetry

Cc1ccccc1Cl [2-chlorotoluene] + C1CCOCC1
[1]
Conditions | mass density, 298.15 K [kg/m3] | mass density, 303.15 K [kg/m3] | mass density, 308.15 K [kg/m3] | speed of sound, 298.15 K [m/s] | speed of sound, 303.15 K [m/s] | speed of sound, 308.15 K [m/s]
x1 = 0.1156 | 906.77 ± 1 | 901.67 ± 1 | 896.57 ± 1 | 1274.6 ± 1.1 | 1252.7 ± 1 | 1230.7 ± 1
x1 = 0.1765 | 920.75 ± 1 | 915.67 ± 1 | 910.57 ± 1 | 1277 ± 1.1 | 1255.6 ± 1.1 | 1233.7 ± 1.1
x1 = 0.2342 | 933.65 ± 1 | 928.57 ± 1 | 923.48 ± 1 | 1279.3 ± 1.1 | 1258.1 ± 1.1 | 1236.6 ± 1.1
x1 = 0.2765 | 942.89 ± 1 | 937.81 ± 1 | 932.73 ± 1 | 1280.9 ± 1.1 | 1259.9 ± 1.1 | 1238.6 ± 1.1
x1 = 0.3305 | 954.43 ± 1 | 949.36 ± 1 | 944.29 ± 1 | 1282.9 ± 1.1 | 1262 ± 1.1 | 1241 ± 1.1
x1 = 0.3716 | 963.04 ± 1 | 957.97 ± 1 | 952.9 ± 1 | 1284.4 ± 1.1 | 1263.7 ± 1.1 | 1242.9 ± 1.1
x1 = 0.4235 | 973.69 ± 1 | 968.63 ± 1 | 963.56 ± 1 | 1286.2 ± 1.1 | 1265.7 ± 1.1 | 1245 ± 1.1
x1 = 0.4721 | 983.44 ± 1 | 978.39 ± 1 | 973.33 ± 1 | 1287.9 ± 1.1 | 1267.4 ± 1.1 | 1247 ± 1.1
x1 = 0.5216 | 993.16 ± 1 | 988.12 ± 1 | 983.08 ± 1 | 1289.4 ± 1.1 | 1269 ± 1.1 | 1249 ± 1.1
x1 = 0.5803 | 1004.4 ± 1 | 999.4 ± 1 | 994.39 ± 1 | 1291.2 ± 1.1 | 1271.1 ± 1.1 | 1251.1 ± 1.1
x1 = 0.6317 | 1014.1 ± 1 | 1009.1 ± 1 | 1004.1 ± 1 | 1292.6 ± 1.1 | 1272.7 ± 1.1 | 1252.8 ± 1.1
x1 = 0.6796 | 1022.8 ± 1 | 1017.9 ± 1 | 1012.9 ± 1 | 1293.9 ± 1.1 | 1274.1 ± 1.1 | 1254.5 ± 1.1
x1 = 0.7216 | 1030.4 ± 1 | 1025.4 ± 1 | 1020.5 ± 1 | 1294.8 ± 1.2 | 1275.3 ± 1.1 | 1255.7 ± 1.1
x1 = 0.7737 | 1039.6 ± 1 | 1034.7 ± 1 | 1029.7 ± 1 | 1296 ± 1.2 | 1276.7 ± 1.2 | 1257.3 ± 1.2
x1 = 0.8219 | 1047.9 ± 1 | 1043 ± 1 | 1038.1 ± 1 | 1296.8 ± 1.2 | 1277.8 ± 1.2 | 1258.6 ± 1.2
x1 = 0.8753 | 1057 ± 1 | 1052.1 ± 1 | 1047.2 ± 1 | 1297.7 ± 1.2 | 1279 ± 1.2 | 1260 ± 1.2
x1 = 0.9064 | 1062.2 ± 1 | 1057.3 ± 1 | 1052.4 ± 1 | 1298.1 ± 1.2 | 1279.5 ± 1.2 | 1260.7 ± 1.2
x1 = 0.9325 | 1066.5 ± 1 | 1061.6 ± 1 | 1056.7 ± 1 | 1298.3 ± 1.2 | 1279.9 ± 1.2 | 1261.4 ± 1.2

[2]
Conditions | excess molar enthalpy [kcal/mol]
x1 = 0.0994 | -0.0166 ± 0.000311
x1 = 0.1367 | -0.0226 ± 0.000359
x1 = 0.1982 | -0.0304 ± 0.000478
x1 = 0.2467 | -0.0368 ± 0.000478
x1 = 0.3018 | -0.0425 ± 0.000478
x1 = 0.3537 | -0.0459 ± 0.000478
x1 = 0.3986 | -0.04876 ± 0.000478
x1 = 0.4367 | -0.05115 ± 0.000478
x1 = 0.4825 | -0.0526 ± 0.000717
x1 = 0.5267 | -0.0526 ± 0.000717
x1 = 0.5894 | -0.05115 ± 0.000478
x1 = 0.6276 | -0.05043 ± 0.000478
x1 = 0.6934 | -0.0457 ± 0.000478
x1 = 0.7368 | -0.0418 ± 0.000478
x1 = 0.7864 | -0.037 ± 0.000478

Cc1ccccc1Cl [2-chlorotoluene] + C1COCCO1
[1]
Conditions | mass density, 298.15 K [kg/m3] | mass density, 303.15 K [kg/m3] | mass density, 308.15 K [kg/m3] | speed of sound, 298.15 K [m/s] | speed of sound, 303.15 K [m/s] | speed of sound, 308.15 K [m/s]
x1 = 0.0984 | 1033.4 ± 1 | 1027.7 ± 1 | 1022 ± 1 | 1338.2 ± 1.1 | 1316.6 ± 1.1 | 1295.1 ± 1.1
x1 = 0.1643 | 1036.9 ± 1 | 1031.3 ± 1 | 1025.6 ± 1 | 1333.2 ± 1.1 | 1312 ± 1.1 | 1290.8 ± 1.1
x1 = 0.2124 | 1039.5 ± 1 | 1033.9 ± 1 | 1028.3 ± 1 | 1329.9 ± 1.1 | 1308.9 ± 1.1 | 1287.9 ± 1.1
x1 = 0.2837 | 1043.3 ± 1 | 1037.8 ± 1 | 1032.3 ± 1 | 1325.3 ± 1.1 | 1304.6 ± 1.1 | 1284 ± 1.1
x1 = 0.3427 | 1046.3 ± 1 | 1040.9 ± 1 | 1035.5 ± 1 | 1321.8 ± 1.2 | 1301.5 ± 1.1 | 1281.2 ± 1.1
x1 = 0.3918 | 1048.9 ± 1 | 1043.5 ± 1 | 1038.2 ± 1 | 1319.1 ± 1.2 | 1299 ± 1.2 | 1279 ± 1.1
x1 = 0.4375 | 1051.2 ± 1 | 1045.9 ± 1 | 1040.6 ± 1 | 1316.8 ± 1.2 | 1296.9 ± 1.2 | 1277 ± 1.1
x1 = 0.4864 | 1053.6 ± 1 | 1048.4 ± 1 | 1043.1 ± 1 | 1314.5 ± 1.2 | 1294.8 ± 1.2 | 1275.1 ± 1.2
x1 = 0.5237 | 1055.5 ± 1 | 1050.3 ± 1 | 1045.1 ± 1 | 1312.8 ± 1.2 | 1293.2 ± 1.2 | 1273.8 ± 1.2
x1 = 0.5765 | 1058.1 ± 1 | 1052.9 ± 1 | 1047.7 ± 1 | 1310.7 ± 1.2 | 1291.2 ± 1.2 | 1271.9 ± 1.2
x1 = 0.6237 | 1060.4 ± 1 | 1055.2 ± 1 | 1050.1 ± 1 | 1308.8 ± 1.2 | 1289.6 ± 1.2 | 1270.4 ± 1.2
x1 = 0.6801 | 1063 ± 1 | 1057.9 ± 1 | 1052.8 ± 1 | 1306.9 ± 1.2 | 1287.7 ± 1.2 | 1268.7 ± 1.2
x1 = 0.7135 | 1064.6 ± 1 | 1059.5 ± 1 | 1054.4 ± 1 | 1305.8 ± 1.2 | 1286.7 ± 1.2 | 1267.8 ± 1.2
x1 = 0.7737 | 1067.4 ± 1 | 1062.3 ± 1 | 1057.2 ± 1 | 1304 ± 1.2 | 1285 ± 1.2 | 1266.3 ± 1.2
x1 = 0.8125 | 1069.2 ± 1 | 1064.1 ± 1 | 1059 ± 1 | 1302.9 ± 1.2 | 1284.1 ± 1.2 | 1265.4 ± 1.2
x1 = 0.8635 | 1071.4 ± 1 | 1066.4 ± 1 | 1061.4 ± 1 | 1301.7 ± 1.2 | 1283 ± 1.2 | 1264.4 ± 1.2
x1 = 0.9012 | 1073.1 ± 1 | 1068.1 ± 1 | 1063.1 ± 1 | 1300.8 ± 1.2 | 1282.2 ± 1.2 | 1263.8 ± 1.2
x1 = 0.9415 | 1074.9 ± 1 | 1069.9 ± 1 | 1064.9 ± 1 | 1299.9 ± 1.2 | 1281.5 ± 1.2 | 1263.3 ± 1.2

[2]
Conditions | excess molar enthalpy [kcal/mol]
x1 = 0.0998 | 0.0387 ± 0.000478
x1 = 0.1643 | 0.0583 ± 0.000717
x1 = 0.2095 | 0.0676 ± 0.000717
x1 = 0.2498 | 0.07529 ± 0.000717
x1 = 0.3012 | 0.0827 ± 0.000956
x1 = 0.3567 | 0.0872 ± 0.000956
x1 = 0.4098 | 0.088 ± 0.000956
x1 = 0.4597 | 0.0877 ± 0.000956
x1 = 0.5088 | 0.0851 ± 0.000956
x1 = 0.5563 | 0.08078 ± 0.000717
x1 = 0.6019 | 0.07529 ± 0.000717
x1 = 0.6532 | 0.0672 ± 0.000717
x1 = 0.7067 | 0.0588 ± 0.000717
x1 = 0.7538 | 0.04924 ± 0.000478
x1 = 0.8093 | 0.0382 ± 0.000478
x1 = 0.8498 | 0.0299 ± 0.000478
x1 = 0.8932 | 0.0209 ± 0.000359
x1 = 0.9265 | 0.0144 ± 0.000311

From the NIST ThermoML archive (doi:10.1021/je400722h)
